Data: patent US20250243174A1, “ANTITUMORAL COMPOUNDS” (PHARMA MAR, S.A., priority 2021, published 2025)
Read-outs that look alike come from different tables or passages of the source.

Key:
PSN-1 = assay: SRB colorimetric cytotoxicity assay, PSN-1; type: cell-based; conditions: Homo sapiens, read-out: GI50 (M) PSN-1
Description: The aim of this assay is to evaluate the in vitro cytostatic (ability to delay or arrest tumor cell growth) or cytotoxic (ability to kill tumor cells) activity of the samples being tested.
A colorimetric assay, using sulforhodamine B (SRB) reaction has been adapted to provide a quantitative measurement of cell growth and viability (using the technique developed by Skehan et al., J. Natl. Cancer Inst. 1990 and following the protocol detailed in V. Vichai and K. Kirtikara (2006) Nature Protoc. 1, 1112-1116.)
This form of assay employs 96-well cell culture microplates. All the cell lines used in this study were obtained from the American Type Culture Collection (ATCC), unless otherwise indicated, and derive from different types of human cancer.
Cells were maintained in Dulbecco's Modified Eagle Medium (DMEM) (for A549, HT-29 and MDA-MB-231) or RPMI (for PSN-1) supplemented with 10% Fetal Bovine Serum (FBS), 2 mM L-glutamine, 100 U/mL penicillin and 100 U/mL streptomycin at 37° C., 5% CO2 and 98% humidity. For the experiments, cells were harvested from subconfluent cultures using trypsinization and resuspended in fresh medium before counting and plating.
Cells were seeded in 96 well microtiter plates, at 5×10^3 cells per well in aliquots of 150 μL, and allowed to attach to the plate surface for 18 hours (overnight) in drug free medium. After that, one control (untreated) plate of each cell line was fixed (as described below) and used for time zero reference value. Culture plates were then treated with test compounds (50 μL aliquots of 4× concentrated compound stock solutions made in complete culture medium) using ten serial dilutions (concentrations ranging from […]) and triplicate cultures (final concentration of DMSO being 1%). After 72 hours treatment, the antitumor effect was measured by using the SRB methodology: Briefly, cells were washed twice with PBS, fixed for 15 min in 1% glutaraldehyde solution at room temperature, rinsed twice in PBS, and stained in 0.4% SRB solution for 30 min at room temperature. Cells were then rinsed several times with 1% acetic acid solution and air-dried at room temperature. SRB was then extracted in 10 mM trizma base solution and the absorbance measured in an automated spectrophotometric plate reader at 490 nm. Effects on cell growth and survival were estimated by applying the NCI algorithm (Boyd M R and Paull K D. Drug Dev. Res. 1995, 34, 91-104).
Using the mean±SD of triplicates, a dose-response curve was automatically generated using nonlinear regression analysis to a 4-parameter logistic curve. Three reference parameters were calculated (NCI algorithm) by automatic interpolation: GI50=compound concentration that produces […] cell growth inhibition, as compared to control cultures.

HCT-116 xenografts = assay: Example 7, colon xenograft model HCT-116; type: in vivo; conditions: for TV, median (IQR) / Median survival time: iv Q7dx3; for TV, median (IQR): high dose: PM060184 16, Comp. 2 2, Comp. 3 1 mg/kg; for mean time with tumor remission: high dose: compound 2 2.0, compound 3 1.0, PM060184 16 mg/kg; for animals in complete tumor remission: highest dose: compound 2 2.0, compound 3 1.0 mg/kg; for antitumor activity compared to PM060184-treated group at 16 mg/kg: once treatments were finalized (days 21 to 35), 2 at 2 mg/kg, 3 at 1 mg/kg; for mean body weight reduction: recorded on Day 9, compound 2 2.0 mg/kg, compound 3 1.0 mg/kg
Description: Female athymic nu/nu mice (Harlan Laboratories Models, S.L. Barcelona, Spain or Envigo, Spain) were utilized for all experiments. Animal were housed in individually ventilated cages Sealsafe® Plus, Techniplast S.P.A.), up to ten per cage on a 12-hour light-dark cycle at 21-23° C. and 40-60% humidity. Mice were allowed free access to irradiated standard rodent diet (Tecklad 2914C) and sterilized water. Animals were acclimated for at least 5 days prior to tumor implantation with a tumor cell suspension.
HCT116 cells were maintained in vitro at 37° C., 5% Co2 in McCoy's 5A Medium (Sigma Aldrich, Co.). Culture cells were passage every 3 to 5 days on reaching confluence. Each animal was subcutaneously implanted (on the right flank using 26G needle and a 1 cc syringe) at 4-6 weeks of age with 5×10^6 HCT116 cells suspended in 0.05 mL of a solution consisting of 50% Matrigel® (Corning Incorporated Life Sciences) and 50% medium without serum or antibiotics.
All treatments were intravenously administered on a weekly basis at their MTD, ¼ MTD and 1/16 MTD (high, medium and low dose).
Briefly: • 4 to 6 week-old athymic nu/nu female mice were subcutaneously implanted with tumor cells growing in culture. • When tumors reached a certain volume, tumor bearing animals (N=8-10/group) were randomly allocated into treatment groups. • Tumor dimensions and body weights were recorded 2-3 times per week starting from the first day of treatment (Day 0). Treatments producing >20% lethality and/or 20% net body weight loss were considered toxic. Tumor volume was calculated using the equation (a·b^2)/2, where a and b were the longest and shortest diameters, respectively. Animals were euthanized when their tumors reached ca. 2,000 mm^3 and/or severe necrosis was seen. • Median was calculated for tumor volume on each measurement day. • Antitumor effect was assessed comparing tumor volume data from groups following the 1st, 2nd, 3rd study weeks, or more depending on the case, using a two-tailed Mann-Whitney U test. The data are presented as medians and interquartile range (IQR). • Complete tumor regression (CR) was defined when tumor volume<63 mm^3 for 2 or more consecutive measurements. • Treatment tolerability was assessed by monitoring body weight evolution, clinical signs of systemic toxicity as well as evidences of local damage at the injection site.
PM060184 was provided in the form of freeze-dried vials of lyophilized product. Each vial was reconstituted with water for infusion to a concentration of 2.5 mg/mL.
Compounds 2 and 3 were provided in the powder form and were solubilized with hydroxy-propyl-β-cyclodextrin (HPβCD), reaching a concentration of 1 mg/ml or 0.2 mg/ml, respectively. Placebo was provided in the form of lyophilised cake containing 1.2 g of hydroxy-propyl-β-cyclodextrin (HPβCD) which was reconstituted with water for infusion.
In these experiments, compounds 2, 3 and PM060184, as well as placebo, were intravenously administered once per week for 3 consecutive weeks, on Days 0, 7 and 14, whenever it was possible.
The experiment was carried out as previously explained. When tumors reached ca. 195-205 mm^3, tumor bearing animals (N=10/group) were randomly allocated into the following treatment groups:
Treatments were initiated on Day 0.

[1] = high dose: PM060184 16.0, Comp. 2 2.0, Comp. 3 1.0 mg/kg, ud = group not reached mortality
[2] = low dose: PM060184 1.0, Comp. 2 0.125, Comp. 3 0.0625 mg/kg
[3] = medium dose: PM060184 4.0, Comp. 2 0.5, Comp. 3 0.25 mg/kg
[4] = medium-dose: compound 2 0.5, compound 3 0.25 mg/kg

Row | SMILES | GI50 (PSN-1; PSN1, 72 h) [M] | TV, median (IQR) (HCT-116 xenografts; Day 7) | TV, median (IQR) (HCT-116 xenografts; Day 14) | TV, median (IQR) (HCT-116 xenografts; Day 21) | TV, median (IQR) (HCT-116 xenografts; Day 28) | TV, median (IQR) (HCT-116 xenografts; Day 35) | Median survival time (HCT-116 xenografts; [1]) | mean time with tumor remission (HCT-116 xenografts) [days] | animals in complete tumor remission (HCT-116 xenografts) [%] | Median survival time (HCT-116 xenografts; [2]) [days] | Median survival time (HCT-116 xenografts; [3]) [days] | animals that reached a complete remission (n/10) (HCT-116 xenografts; [4]) | complete remission lasted a mean of (HCT-116 xenografts; [4]) [days] | antitumor activity compared to PM060184-treated group at 16 mg/kg (HCT-116 xenografts) | mean body weight reduction (HCT-116 xenografts) | GI50 (PSN-1; PSN1, 72 hours treatment, SRB) [M] | animals that reached a complete remission (n/10) (HCT-116 xenografts; high-dose: PM060184 16 mg/kg) | body weight decrease (HCT-116 xenografts; recorded on Day 2, PM060184 16 mg/kg)
1 | COC1=CC[C@@H]([C@@H](C)/C=C(C)/C=C\C=C/C(=O)N[C@H](C(=O)N/C=C\C[C@H](CC=C(C)C)OC(N)=O)C(C)(C)C)OC1=O [Compound 3] | 1.43e-10 | 121.6 (86.3-164.8) mm3 | 55.6 (16.2-82.3) mm3 | 32.0 (4.0-40.0) mm3 | 13.5 (4.0-13.5) mm3 | 13.5 (13.5-13.5) mm3 | ud | 23.7 | 100 | 14 | 49 | 1/10 | 2 | big difference, in terms of antitumor activity, statistically significant | ca. −16.2% |  |  | 
2 | COC1=CC[C@@H]([C@@H](C)/C=C(C)/C=C\C=C/C(=O)N[C@H](C(=O)N/C=C\C[C@H](C/C=C(\C)F)OC(N)=O)C(C)(C)C)OC1=O [Compound 2] | 2.27e-11 | 135.5 (114.1-154.5) mm3 | 57.2 (47.1-62.9) mm3 | 25.0 (13.5-34.0) mm3 | 13.5 (13.5-32.0) mm3 | 13.5 (13.5-13.5) mm3 | ud | 25.8 | 100 | 19 | 58 | 4/10 | 9 | big difference, in terms of antitumor activity, statistically significant | ca. −13.5% |  |  | 
3 | C/C=C\C[C@@H](C/C=C\NC(=O)[C@@H](NC(=O)\C=C/C=C\C(C)=C\[C@H](C)[C@@H]1CC=C(OC)C(=O)O1)C(C)(C)C)OC(N)=O [PM060184, reference compound] |  | 140.5 (123.0-157.3) mm3 | 59.2 (50.7-84.2) mm3 | 63.8 (43.6-80.0) mm3 | 265.7 (195.2-284.3) mm3 | 650.2 (516.7-732.6) mm3 | 47 days | 5.8 |  | 19 | 43 |  |  |  |  | 1.87e-10 | 6/10 | ca. −3.2%
